# Results taken from patent US9663508B2, “Biaryl acyl-sulfonamide compounds as sodium channel inhibitors” (AMGEN INC., priority 2013, dated 2017).
# Molecular target: human Nav1.7 (Homo sapiens (Human), UniProt Q15858)
# Test: Nav 1.7 in vitro PatchXpress (PX) assay
# Format: cell-based
# Settings: not given
# human Nav1.7, sequence (Q15858 whole entry): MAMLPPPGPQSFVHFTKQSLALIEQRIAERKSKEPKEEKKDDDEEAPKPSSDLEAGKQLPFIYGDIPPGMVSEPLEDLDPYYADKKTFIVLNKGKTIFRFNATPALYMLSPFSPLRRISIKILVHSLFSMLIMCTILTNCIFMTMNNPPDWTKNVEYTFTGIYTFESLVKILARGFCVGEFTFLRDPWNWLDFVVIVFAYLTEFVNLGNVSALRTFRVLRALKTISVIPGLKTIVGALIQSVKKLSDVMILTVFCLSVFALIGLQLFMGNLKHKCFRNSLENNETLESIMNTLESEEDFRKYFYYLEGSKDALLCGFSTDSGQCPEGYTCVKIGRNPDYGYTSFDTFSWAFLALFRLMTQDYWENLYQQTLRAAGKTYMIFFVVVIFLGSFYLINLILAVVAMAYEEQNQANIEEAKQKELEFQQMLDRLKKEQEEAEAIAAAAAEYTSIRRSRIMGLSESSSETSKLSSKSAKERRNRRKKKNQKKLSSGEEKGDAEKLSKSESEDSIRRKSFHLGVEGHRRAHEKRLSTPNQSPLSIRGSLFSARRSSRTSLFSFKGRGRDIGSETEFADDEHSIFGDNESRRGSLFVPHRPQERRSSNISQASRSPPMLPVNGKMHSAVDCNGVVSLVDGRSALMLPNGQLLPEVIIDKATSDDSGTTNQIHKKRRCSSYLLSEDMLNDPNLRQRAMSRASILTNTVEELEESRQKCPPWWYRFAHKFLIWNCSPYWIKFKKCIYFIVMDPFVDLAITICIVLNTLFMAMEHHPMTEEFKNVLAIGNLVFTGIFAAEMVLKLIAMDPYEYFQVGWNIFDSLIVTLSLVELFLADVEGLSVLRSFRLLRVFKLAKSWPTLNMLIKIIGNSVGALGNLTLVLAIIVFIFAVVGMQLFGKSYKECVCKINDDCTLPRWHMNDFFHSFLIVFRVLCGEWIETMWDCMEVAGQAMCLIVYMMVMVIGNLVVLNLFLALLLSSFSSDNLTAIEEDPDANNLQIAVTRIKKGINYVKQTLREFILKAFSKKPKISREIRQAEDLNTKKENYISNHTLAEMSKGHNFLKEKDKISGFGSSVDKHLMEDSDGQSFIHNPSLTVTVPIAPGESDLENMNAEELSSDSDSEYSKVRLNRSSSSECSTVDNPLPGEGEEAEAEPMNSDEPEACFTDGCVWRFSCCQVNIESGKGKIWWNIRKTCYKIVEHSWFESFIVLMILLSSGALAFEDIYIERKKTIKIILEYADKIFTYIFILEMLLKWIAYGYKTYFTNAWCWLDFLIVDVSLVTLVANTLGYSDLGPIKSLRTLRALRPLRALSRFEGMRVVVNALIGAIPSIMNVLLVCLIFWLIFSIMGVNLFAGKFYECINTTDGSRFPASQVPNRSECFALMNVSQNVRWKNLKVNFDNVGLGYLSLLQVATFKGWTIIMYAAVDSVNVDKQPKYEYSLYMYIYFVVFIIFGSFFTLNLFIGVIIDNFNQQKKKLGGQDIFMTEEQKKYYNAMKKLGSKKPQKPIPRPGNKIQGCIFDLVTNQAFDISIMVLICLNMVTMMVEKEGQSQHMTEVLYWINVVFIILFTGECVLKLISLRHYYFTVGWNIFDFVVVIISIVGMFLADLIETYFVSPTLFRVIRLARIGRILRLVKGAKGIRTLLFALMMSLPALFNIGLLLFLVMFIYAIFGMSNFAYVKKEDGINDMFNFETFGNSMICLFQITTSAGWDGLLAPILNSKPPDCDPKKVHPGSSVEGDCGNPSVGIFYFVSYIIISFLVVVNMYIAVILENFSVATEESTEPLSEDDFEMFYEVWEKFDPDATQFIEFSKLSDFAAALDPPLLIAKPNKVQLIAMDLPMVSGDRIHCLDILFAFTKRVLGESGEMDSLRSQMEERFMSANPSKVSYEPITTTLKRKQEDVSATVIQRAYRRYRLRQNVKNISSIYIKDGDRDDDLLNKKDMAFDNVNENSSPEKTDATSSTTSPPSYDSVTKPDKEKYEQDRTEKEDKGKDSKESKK
row,SMILES,IC50 [µM]
1,"Cc1cc(C(=O)NS(C)(=O)=O)c(F)cc1-c1cnc(Oc2ccc(F)cc2C(F)(F)F)c(Cl)c1 [Example 678, 4-(5-chloro-6-(4-fluoro-2-(trifluoromethyl)phenoxy)-3-pyridinyl)-2-fluoro-5-methyl-N-(methylsulfonyl)benzamide]",0.0744
2,"Cc1cc(C(=O)NS(C)(=O)=O)c(F)cc1-c1cnc(Oc2ccc(F)c(Cl)c2)c(Cl)c1 [Example 626, 4-(5-chloro-6-(3-chloro-4-fluorophenoxy)-3-pyridinyl)-2-fluoro-5-methyl-N-(methylsulfonyl)benzamide]",0.108
3,"COc1cc(C(=O)NS(C)(=O)=O)ccc1-c1cnc(Oc2cc(F)ccc2Cl)c(Cl)c1 [Example 371, 4-(5-chloro-6-(2-chloro-5-fluorophenoxy)-3-pyridinyl)-3-methoxy-N-(methylsulfonyl)benzamide]",0.08
4,"COc1cc(C(=O)NS(C)(=O)=O)ccc1-c1cnc(Oc2cc(F)ccc2F)c(Cl)c1 [Example 363, 4-(5-chloro-6-(2,5-difluorophenoxy)-3-pyridinyl)-3-methoxy-N-(methylsulfonyl)benzamide]",0.1
5,"CCc1cc(Oc2ncc(-c3ccc(C(=O)NS(C)(=O)=O)cc3OC)cc2Cl)ccc1Cl [Example 368, 4-(5-chloro-6-(4-chloro-3-ethylphenoxy)-3-pyridinyl)-3-methoxy-N-(methylsulfonyl)benzamide]",0.0723
6,"COc1cc(C(=O)NS(C)(=O)=O)ccc1-c1cnc(Oc2cc(Cl)cc(OC(F)(F)F)c2)c(Cl)c1 [Example 372, 4-(5-chloro-6-(3-chloro-5-(trifluoromethoxy)phenoxy)-3-pyridinyl)-3-methoxy-N-(methylsulfonyl)benzamide]",0.0504
7,"CS(=O)(=O)NC(=O)c1cc(F)c(-c2cnc(Oc3c(Cl)cc(Cl)cc3Cl)c(Cl)c2)cc1F [Example 568, 4-(5-chloro-6-(2,4,6-trichlorophenoxy)-3-pyridinyl)-2,5-difluoro-N-(methylsulfonyl)benzamide]",0.0485
8,"Cc1ccc(Oc2ncc(-c3ccc(C(=O)NS(C)(=O)=O)cc3OC3COC3)cc2Cl)cc1Cl [Example 425, 4-(5-chloro-6-(3-chloro-4-methylphenoxy)-3-pyridinyl)-N-(methylsulfonyl)-3-(3-oxetanyloxy)benzamide]",0.0322
9,"COc1cc(C(=O)NS(C)(=O)=O)ccc1-c1cnc(Oc2ccc(Cl)c(OC(F)(F)F)c2)c(Cl)c1 [Example 373, 4-(5-chloro-6-(4-chloro-3-(trifluoromethoxy)phenoxy)-3-pyridinyl)-3-methoxy-N-(methylsulfonyl)benzamide]",0.0662
10,"Cc1ccc(Oc2ncc(-c3ccc(C(=O)NS(C)(=O)=O)cc3OC(F)F)cc2Cl)c(Cl)c1 [Example 465, 4-(5-chloro-6-(2-chloro-4-methylphenoxy)-3-pyridinyl)-3-(difluoromethoxy)-N-(methylsulfonyl)benzamide]",0.0697
11,"COc1cc(C(=O)NS(C)(=O)=O)ccc1-c1cnc(Oc2cc(Cl)ccc2Cl)c(Cl)c1 [Example 582, 4-(5-chloro-6-(2,5-dichlorophenoxy)-3-pyridinyl)-3-methoxy-N-(methylsulfonyl)benzamide]",0.0614
12,"CS(=O)(=O)NC(=O)c1ccc(-c2cnc(Oc3ccc4ccccc4c3)c(Cl)c2)c(OC2COC2)c1 [Example 424, 4-(5-chloro-6-(2-naphthalenyloxy)-3-pyridinyl)-N-(methylsulfonyl)-3-(3-oxetanyloxy)benzamide]",0.0994
13,"CC1(Oc2ncc(-c3cc(F)c(C(=O)NS(C)(=O)=O)cc3Cl)cc2Cl)CCC1 [Example 602, 5-chloro-4-(5-chloro-6-((1-methylcyclobutyl)oxy)-3-pyridinyl)-2-fluoro-N-(methylsulfonyl)benzamide]",0.1
14,"COc1ccc(Oc2ncc(-c3ccc(C(=O)NS(C)(=O)=O)cc3OC)cc2Cl)c(Cl)c1 [Example 365, 4-(5-chloro-6-(2-chloro-4-methoxyphenoxy)-3-pyridinyl)-3-methoxy-N-(methylsulfonyl)benzamide]",0.0914

# Same assay, conditions: in-vitro Nav 1.7 PX data
row,SMILES,IC50 [µM]
1,"COc1cc(C(=O)NS(C)(=O)=O)c(F)cc1-c1cnc(Oc2ccc(Cl)cc2Cl)c(Cl)c1 [Example 738, 4-(5-chloro-6-(2,4-dichlorophenoxy)-3-pyridinyl)-2-fluoro-5-methoxy-N-(methylsulfonyl)benzamide]",0.037
2,"COc1cc(C(=O)NS(C)(=O)=O)c(F)cc1-c1cnc(O[C@H]2C[C@H](C)C2)c(Cl)c1 [Example 735, 4-(5-chloro-6-((trans-3-methylcyclobutyl)oxy)-3-pyridinyl)-2-fluoro-5-methoxy-N-(methylsulfonyl)benzamide]",0.0591
3,"Cc1cc(C(=O)NS(C)(=O)=O)c(F)cc1-c1ccc2c(c1)OC(F)(F)O2 [Example 809, 4-(2,2-difluoro-1,3-benzodioxol-5-yl)-2-fluoro-5-methyl-N-(methylsulfonyl)benzamide]",0.647
4,"COc1cc(C(=O)NS(C)(=O)=O)c(F)cc1-c1cnc(O[C@H](C)c2ccccc2)c(Cl)c1 [Example 749, 4-(5-chloro-6-((1R)-1-phenylethoxy)-3-pyridinyl)-2-fluoro-5-methoxy-N-(methylsulfonyl)benzamide]",0.0936
5,"CCOc1cc(C(=O)NS(C)(=O)=O)c(F)cc1-c1cnc(Oc2cccc(Cl)c2C)c(Cl)c1 [Example 779, 4-(5-chloro-6-(3-chloro-2-methylphenoxy)-3-pyridinyl)-5-ethoxy-2-fluoro-N-(methylsulfonyl)benzamide]",0.0947
6,"COc1cc(C(=O)NS(C)(=O)=O)c(F)cc1-c1cnc(N[C@@H]2CC23CCCC3)c(Cl)c1 [Example 720, 4-(5-chloro-6-((1R)-spiro[2.4]hept-1-ylamino)-3-pyridinyl)-2-fluoro-5-methoxy-N-(methylsulfonyl)benzamide, 4-(5-chloro-6-((1S)-spiro[2.4]hept-1-ylamino)-3-pyridinyl)-2-fluoro-5-methoxy-N-(methylsulfonyl)benzamide]",0.0844
7,"COc1cc(C(=O)NS(C)(=O)=O)c(F)cc1-c1cnc(N[C@@H]2CCC23CCC3)c(Cl)c1 [Example 722, 4-(5-chloro-6-((1R)-spiro[3.3]hept-1-ylamino)-3-pyridinyl)-2-fluoro-5-methoxy-N-(methylsulfonyl)benzamide, 4-(5-chloro-6-((1S)-spiro[3.3]hept-1-ylamino)-3-pyridinyl)-2-fluoro-5-methoxy-N-(methylsulfonyl)benzamide]",0.11
8,"COc1cc(C(=O)NS(C)(=O)=O)c(F)cc1-c1cnc(Oc2ccc(F)c(C)c2)c(Cl)c1 [Example 754, 4-(5-chloro-6-(4-fluoro-3-methylphenoxy)-3-pyridinyl)-2-fluoro-5-methoxy-N-(methylsulfonyl)benzamide]",0.0922
9,"CS(=O)(=O)NC(=O)c1cc(OC(F)F)c(-c2cnc(Oc3cc(Cl)cc(Cl)c3)c(Cl)c2)cc1F [Example 784, 4-(5-chloro-6-(3,5-dichlorophenoxy)-3-pyridinyl)-5-(difluoromethoxy)-2-fluoro-N-(methylsulfonyl)benzamide]",0.014
10,"COc1cc(C(=O)NS(C)(=O)=O)c(F)cc1-c1cnc(Oc2cccc(Cl)c2)c(Cl)c1 [Example 765, 4-(5-chloro-6-(3-chlorophenoxy)-3-pyridinyl)-2-fluoro-5-methoxy-N-(methylsulfonyl)benzamide]",0.0849
11,"COc1cc(C(=O)NS(C)(=O)=O)c(F)cc1-c1cnc(Oc2ccc3ccccc3c2Cl)c(Cl)c1 [Example 717, 4-(5-chloro-6-((1-chloro-2-naphthalenyl)oxy)-3-pyridinyl)-2-fluoro-5-methoxy-N-(methylsulfonyl)benzamide]",0.0993
12,"COc1cc(C(=O)NS(C)(=O)=O)c(F)cc1-c1cnc(Oc2c(F)ccc(Cl)c2F)c(Cl)c1 [Example 744, 4-(5-chloro-6-(3-chloro-2,6-difluorophenoxy)-3-pyridinyl)-2-fluoro-5-methoxy-N-(methylsulfonyl)benzamide]",0.0678
13,"COc1cc(C(=O)NS(C)(=O)=O)c(F)cc1-c1cnc(Oc2cc(Cl)ccc2F)c(Cl)c1 [Example 747, 4-(5-chloro-6-(5-chloro-2-fluorophenoxy)-3-pyridinyl)-2-fluoro-5-methoxy-N-(methylsulfonyl)benzamide]",0.0836
14,"COc1cc(C(=O)NS(C)(=O)=O)c(F)cc1-c1cnc(O[C@H](C)c2ccc(F)cc2Cl)c(Cl)c1 [Example 761, 4-(5-chloro-6-((1R)-1-(2-chloro-4-fluorophenyl)ethoxy)-3-pyridinyl)-2-fluoro-5-methoxy-N-(methylsulfonyl)benzamide]",0.0821
15,"Cc1cc(C(=O)NS(C)(=O)=O)c(F)cc1-c1cnc(-c2cc(F)cc(F)c2)c(Cl)c1 [Example 834, 4-(5-Chloro-6-(3,5-Difluorophenyl)-3-Pyridinyl)-2-Fluoro-5-Methyl-N-(Methylsulfonyl)Benzamide]",0.498
16,"COc1cc(C(=O)NS(C)(=O)=O)c(F)cc1-c1cnc(O[C@H](C)C2CCC2)c(Cl)c1 (single isomer, unassigned) [Example 769]",0.05
17,"CCS(=O)(=O)NC(=O)c1ccc(-c2cnc(Oc3cccc(Cl)c3C)c(Cl)c2)c(OC)c1 [Example 789, 4-(5-chloro-6-(3-chloro-2-methylphenoxy)-3-pyridinyl)-N-(ethylsulfonyl)-3-methoxybenzamide]",0.0669
18,"CS(=O)(=O)NC(=O)c1cc(OC(F)F)c(-c2cnc(OCc3ccc(Cl)cc3)c(Cl)c2)cc1F [Example 786, 4-(5-chloro-6-((4-chlorobenzyl)oxy)-3-pyridinyl)-5-(difluoromethoxy)-2-fluoro-N-(methylsulfonyl)benzamide]",0.0556
19,"CCC(CC)Nc1ncc(-c2cc(F)c(C(=O)NS(C)(=O)=O)cc2OC)cc1Cl [Example 725, 4-(5-chloro-6-((1-ethylpropyl)amino)-3-pyridinyl)-2-fluoro-5-methoxy-N-(methylsulfonyl)benzamide]",0.0965
20,"Cc1cc(C(=O)NS(C)(=O)=O)c(F)cc1-c1cnc(OCC(F)F)c(Cl)c1 [Example 808, 4-(5-chloro-6-(2,2-difluoroethoxy)-3-pyridinyl)-2-fluoro-5-methyl-N-(methylsulfonyl)benzamide]",2.43
21,"CC(C)COc1ncc(-c2cc(F)c(C(=O)NS(C)(=O)=O)cc2F)cc1-c1cc(F)cc(F)c1 [Example 838, 4-(5-(3,5-difluorophenyl)-6-(2-methylpropoxy)-3-pyridinyl)-2,5-difluoro-N-(methylsulfonyl)benzamide]",0.642
